Patent US20260217708A1, “FUSED BENZAZEPINE DERIVATIVES FOR USE IN THE TREATMENT OF CANCER AND EPILEPSY” (UCB BIOPHARMA SRL, priority 2023, published 2026)

Experiments:
system Xc^− [1] = target: T1, system Xc^− (Homo sapiens, UniProt Q9UPY5); experiment: Cystine-induced glutamate release assay; type: cell-based; parameters: endogenous in cells; host or cells: H4 cells; conditions: H4 cells, sodium-free HEPES buffer, 50 μM L-Cystine, 2 hours, Amplex Red glutamate readout; read-out: pIC50 Cystine-induced glutamate release assay (converted)
T1 sequence (Q9UPY5 1-501): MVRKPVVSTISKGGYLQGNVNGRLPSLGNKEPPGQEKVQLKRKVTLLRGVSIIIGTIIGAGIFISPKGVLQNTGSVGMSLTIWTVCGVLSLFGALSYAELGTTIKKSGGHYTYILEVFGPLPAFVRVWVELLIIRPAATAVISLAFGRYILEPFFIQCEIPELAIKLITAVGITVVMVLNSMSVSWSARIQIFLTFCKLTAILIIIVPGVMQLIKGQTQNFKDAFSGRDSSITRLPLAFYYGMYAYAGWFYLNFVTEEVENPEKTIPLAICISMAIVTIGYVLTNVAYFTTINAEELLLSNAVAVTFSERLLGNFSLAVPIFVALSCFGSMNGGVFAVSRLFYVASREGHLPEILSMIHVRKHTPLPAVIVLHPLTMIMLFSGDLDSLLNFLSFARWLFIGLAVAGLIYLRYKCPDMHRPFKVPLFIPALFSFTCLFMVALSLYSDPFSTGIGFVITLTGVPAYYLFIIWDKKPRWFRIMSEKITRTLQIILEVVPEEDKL
T1 sequence (P08195 1-529 partner): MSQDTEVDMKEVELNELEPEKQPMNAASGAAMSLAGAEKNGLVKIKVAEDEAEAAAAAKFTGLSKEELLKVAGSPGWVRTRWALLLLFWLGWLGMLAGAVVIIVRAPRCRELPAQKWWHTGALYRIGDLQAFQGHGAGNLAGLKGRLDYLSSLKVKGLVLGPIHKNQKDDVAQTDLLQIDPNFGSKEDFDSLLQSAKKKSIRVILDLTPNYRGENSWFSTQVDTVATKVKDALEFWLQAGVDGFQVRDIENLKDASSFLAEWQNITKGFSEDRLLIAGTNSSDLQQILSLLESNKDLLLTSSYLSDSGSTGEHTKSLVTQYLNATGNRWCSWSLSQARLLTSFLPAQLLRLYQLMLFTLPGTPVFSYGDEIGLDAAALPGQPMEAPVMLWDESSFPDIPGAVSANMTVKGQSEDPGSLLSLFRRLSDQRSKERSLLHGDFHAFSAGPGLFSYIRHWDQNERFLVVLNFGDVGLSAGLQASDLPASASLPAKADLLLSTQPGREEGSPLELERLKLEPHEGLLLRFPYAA
Procedure, shortened: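 H4 cells in sodium-free HEPES buffer (pH 7.4), 2 days after plating; glutamate release induced with 50 μM L-cystine plus compound (1% DMSO), 2 h at 37 °C. Supernatant glutamate measured by Amplex Red fluorescence; IC50/pIC50 derived between 1% DMSO and 50 μM erastin controls.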

system Xc^− [2] = target: T1, system Xc^−; experiment: [^14C]L-Cystine uptake assay; type: cell-based; parameters: endogenous in cells; host or cells: H4 cells; conditions: H4 cells, sodium-free HEPES buffer, 0.5 μM L-[14C]Cystine and 4.5 μM L-Cystine, 1 hour at 37° C.; read-out: pIC50 [^14C] L-Cystine uptake assay (converted)
Procedure, shortened: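 H4 cells at 5×10^4 cells/well in sodium-free HEPES buffer were preincubated 15 min with compounds (1% DMSO). Uptake of 0.5 μM [14C]L-cystine plus 4.5 μM unlabelled L-cystine ran 1 hour at 37° C on scintillating plates. IC50 was set between 1% DMSO and 50 μM Erastin controls and expressed as pIC50.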

| IC50 (system Xc^− [1]) | IC50 (system Xc^− [2]) | Structure (SMILES) |
| --- | --- | --- |
| 15.8 to 39.8 nM | 15.8 to 39.8 nM | COc1nc(C)cc2c1-c1cccnc1CC(=O)N2CC(=O)Nc1ccc(C2CC2)cc1 [#80, N-(4-cyclopropylphen-yl)-2-(3-methoxy-5-methyl-9-oxo-4,8,12-triazatricyclo[9.4.0.0^2.7]pentadeca-1(11),2(7),3,5,12,14-hexaen-8-yl)-acetamide] |
| 15.8 to 39.8 nM | < 15.8 nM | COc1nc(C)cc2c1-c1cccnc1C(C)C(=O)N2CC(=O)Nc1ccc(C(F)(F)F)cc1 (stereo not shown) [#81, 2-(3-methoxy-5,10-dimethyl-9-oxo-4,8,12-triazatricyclo[9.4.0.0^2,7]pentadeca-1(11),2,4,6, 12,14-hexaen-8-yl)-N-[4-(trifluoromethyl)-phenyl]acetamide] |
| 100 to 501 nM | 39.8 to 100 nM | CCOc1nc(C)cc2c1-c1cccnc1CC(=O)N2CC(=O)Nc1ccc(C(F)(F)F)cc1 [#82, 2-(3-ethoxy-5-methyl-9-oxo-4,8,12-triazatri-cyclo[9.4.0.0^2,7]penta-deca-1(15),2(7),3,5,11, 13-hexaen-8-yl)-N-[4-(trifluoromethyl)phenyl] acetamide] |
| < 15.8 nM | < 15.8 nM | COc1nc(C)cc2c1-c1cccnc1CC(=O)N2CC(=O)Nc1ccc(C(F)F)cc1 [#83, N-[4-(difluoromethyl)-phenyl]-2-(3-methoxy-5-methyl-9-oxo-4,8,12-triazatricyclo[9.4.0.0^2,7]pentadeca-1(11),2,4,6, 12,14-hexaen-8-yl)acet-amide] |
| 15.8 to 39.8 nM | < 15.8 nM | Cc1cc2c(c(F)n1)-c1cccnc1C(C)C(=O)N2CC(=O)Nc1ccc(C(F)(F)F)cc1 (stereo not shown) [#84, 2-(3-fluoro-5,10-dimethyl-9-oxo-4,8,12-triazatricyclo[9.4.0.0^2,7]pentadeca-1(11),2(7),3,5,12,14-hexaen-8-yl)-N-[4-(trifluoromethyl)phenyl]acetamide] |
| 39.8 to 100 nM | 100 to 501 nM | Cc1cc2c(c(F)n1)-c1ccc(Cl)cc1CC(=O)N2CC(=O)Nc1ccc(C(F)(F)F)cc1 [#85, 2-(9-chloro-1-fluoro-3-methyl-6-oxo-7H-pyrido[4,3-d][3]benzazepin-5-yl)-N-[4-(trifluoromethyl)phenyl]acetamide] |
| 39.8 to 100 nM | 15.8 to 39.8 nM | Cc1cc2c(c(F)n1)-c1ccc(F)cc1CC(=O)N2CC(=O)Nc1ccc(C(F)(F)F)cc1 [#86, 2-(1,9-difluoro-3-methyl-6-oxo-7H-pyrido[4,3-d][3]benzazepin-5-yl)-N-[4-(trifluoromethyl)phenyl]acetamide] |
| 100 to 501 nM | 39.8 to 100 nM | Cc1cc2c(c(F)n1)-c1c(F)cccc1CC(=O)N2CC(=O)Nc1ccc(C(F)(F)F)cc1 [#87, 2-(1,11-difluoro-3-methyl-6-oxo-7H-pyrido[4,3-d][3]benzazepin-5-yl)-N-[4-(trifluoromethyl)phenyl]acetamide] |
| 39.8 to 100 nM | 39.8 to 100 nM | Cc1cc2c(c(F)n1)-c1cccc(C#N)c1CC(=O)N2CC(=O)Nc1ccc(C(F)(F)F)cc1 [#88, 2-(8-cyano-1-fluoro-3-methyl-6-oxo-7H-pyrido[4,3-d][3]benzazepin-5-yl)-N-[4-(trifluoromethyl)phenyl]acetamide] |
| 39.8 to 100 nM | 100 to 501 nM | Cc1cc2c(c(F)n1)-c1cccnc1C(C)(F)C(=O)N2CC(=O)Nc1ccc(C(F)(F)F)cc1 (stereo not shown) [#89, 2-(3,10-difluoro-5,10-dimethyl-9-oxo-4,8,12-triazatricyclo[9.4.0.0^2,7]pentadeca-1(11),2(7),3,5,12,14-hexaen-8-yl)-N-[4-(trifluoromethyl)phenyl]acetamide] |
| 15.8 to 39.8 nM | < 15.8 nM | Cc1cc2c(c(F)n1)-c1cccnc1C(C)C(=O)N2CC(=O)Nc1ccc(Cl)c(F)c1 (stereo not shown) [#90, N-(4-chloro-3-fluoro-phenyl)-2-(3-fluoro-5,10-dimethyl-9-oxo-4,8,12-triazatricyclo[9.4.0.0^2,7]pentadeca-1(11),2(7),3,5,12,14-hexaen-8-yl)acetamide] |
| 39.8 to 100 nM | 15.8 to 39.8 nM | Cc1cc2c(cn1)-c1cccnc1C(C)C(=O)N2CC(=O)Nc1ccc(C(F)(F)F)cc1 (stereo not shown) [#91, 2-(5,10-dimethyl-9-oxo-4,8,12-triazatricyclo[9.4.0.0^2,7]pentadeca-1(11),2(7),3,5,12,14-hexaen-8-yl)-N-[4-(trifluoromethyl)phenyl]acetamide] |
| 39.8 to 100 nM | < 15.8 nM | [2H]C([2H])([2H])C1C(=O)N(CC(=O)Nc2ccc(C(F)(F)F)cc2)c2cc(C)nc(F)c2-c2cccnc21 (stereo not shown) [#92, 2-[3-fluoro-5-methyl-9-oxo-10-(trideuteriomethyl)-4,8,12-triazatricyclo[9.4.0.0^2,7]pentadeca-1(15),2(7),3,5,11,13-hexaen-8-yl]-N-[4-(trifluoromethyl)phenyl]acetamide] |
| 39.8 to 100 nM | 15.8 to 39.8 nM | Cc1cc2c(c(F)n1)-c1ccc(C)nc1C(C)C(=O)N2CC(=O)Nc1ccc(C(F)(F)F)cc1 (stereo not shown) [#93, 2-(3-fluoro-5,10,13-trimethyl-9-oxo-4,8,12-triazatricyclo[9.4.0.0^2,7]pentadeca-1(11),2(7),3,5,12,14-hexaen-8-yl)-N-[4-(trifluoromethyl)phenyl]acetamide] |
| 39.8 to 100 nM | 39.8 to 100 nM | Cc1cc2c(c(F)n1)-c1cccnc1C(O)C(=O)N2CC(=O)Nc1ccc(C(F)(F)F)cc1 (stereo not shown) [#94, 2-(3-fluoro-10-hydroxy-5-methyl-9-oxo-4,8,12-triazatricyclo[9.4.0.0^2,7]pentadeca-1(15),2(7),3,5,11,13-hexaen-8-yl)-N-[4-(trifluoromethyl)phenyl]acetamide] |
| 15.8 to 39.8 nM | 39.8 to 100 nM | Cc1cc2c(c(F)n1)-c1ccccc1C(O)C(=O)N2CC(=O)Nc1ccc(C(F)(F)F)cc1 (stereo not shown) [#95, 2-(1-fluoro-7-hydroxy-3-methyl-6-oxo-7H-pyrido[4,3-d][3]benzazepin-5-yl)-N-[4-(trifluoromethyl)phenyl]acetamide] |
| 15.8 to 39.8 nM | 15.8 to 39.8 nM | COc1nc(C)cc2c1-c1cccnc1C(O)C(=O)N2CC(=O)Nc1ccc(C(F)(F)F)cc1 (stereo not shown) [#96, 2-(10-hydroxy-3-methoxy-5-methyl-9-oxo-4,8,12-triazatricyclo[9.4.0.0^2,7]pentadeca-1(11),2,4,6,12,14-hexaen-8-yl)-N-[4-(trifluoromethyl)phenyl]acetamide] |
| 39.8 to 100 nM | < 15.8 nM | Cc1cc2c(c(Cl)n1)-c1cccnc1CC(=O)N2CC(=O)Nc1ccc(C(F)(F)F)cc1 [#97, 2-(3-chloro-5-methyl-9-oxo-4,8,12-triazatricyclo[9.4.0.0^2,7]pentadeca-1(11),2(7),3,5,12,14-hexaen-8-yl)-N-[4-(trifluoromethyl)phenyl]acetamide] |
| 39.8 to 100 nM | 15.8 to 39.8 nM | COc1nc(C)cc2c1-c1cncnc1CC(=O)N2CC(=O)Nc1ccc(C(F)(F)F)cc1 [#98, 2-(15-methoxy-13-methyl-9-oxo-4,6,10,14-tetrazatricyclo[9.4.0.0^2,7]pentadeca-1(15),2(7),3,5,11,13-hexaen-10-yl)-N-[4-(trifluoromethyl)phenyl]acetamide] |
| 39.8 to 100 nM | 100 to 501 nM | COc1nc(C)cc2c1-c1ccnn1CC(=O)N2CC(=O)Nc1ccc(C(F)(F)F)cc1 [#99, 2-(14-methoxy-12-methyl-8-oxo-5,6,9,13-tetrazatricyclo[8.4.0.0^2,6]tetradeca-1(14),2,4,10,12-pentaen-9-yl)-N-[4-(trifluoromethyl)phenyl]acetamide] |
